Results published in patent US20260251642A1, “MOLECULAR TENSION SENSOR WITH NUCLEIC ACIDS AND HUH-TAGS” (REGENTS OF THE UNIVERSITY OF MINNESOTA, priority 2022, published 2026).
“And” between values parts separate entries of the source, which are not always exact repeats. Equal entries are not always repeated.

What was measured:
[1] = test system: CHO-K1 cells; assay: RAD-TGT rupture and delivery, flow cytometry readout, CHO-K1 cells; assay type: cell-based; details: versus DMSO
Protocol: (§1) RAD-TGT Synthesis: TGTs were designed using previously characterized DNA sequences with a 5′ extension to allow for HUH binding. The following oligonucleotides were purchased from Integrated DNA Technologies. To prepare TGTs, anchor and ligand strands were mixed in a 1.1:1 ratio and then annealed in a 1× annealing buffer by heating at 98° C. for five minutes followed by cooling at room temperature for 1 hour. Excess bottom strand was used to mitigate any single stranded fluorescent top strand which may be internalized resulting in false positives. RAD-TGTs were then generated by reacting HUH-ligand of interest with the annealed duplex in a 2:1 ratio. […]
(§2) RAD-TGT Experimental Setup: Cells of interest were trypsinized for five minutes and transferred to Opti-MEM Reduced Serum Media. Cells were then counted using an automated cell counter. […] Cells were removed from wells and analyzed with a BD ACCURI C6 Plus Personal Flow Cytometer without further washing.
(§3) Statistical Analysis: In general, each experiment was performed on at least three separate days with 1-3 separated wells per day. […] The fluorescence data were concatenated to produce the dot plots. The medians of the normalized data for each biological replicate were used to overlay on the dot plot, and statistical significance was calculated using unpaired ANOVA as previously described.

[2] = test system: U251 cells; assay: RAD-TGT rupture and delivery, flow cytometry readout, U251 cells; assay type: cell-based, human; details: versus DMSO
Protocol: as §1, §2, §3

[3] = test system: U251 and CHO-K1 cells; assay: Soluble RAD-TGT (echistatin) titration on U251 and CHO-K1 cells; assay type: cell-based
Protocol: FIG. 15. Soluble RAD-TGT titration highlights differences in integrin composition between cell lines. Soluble RAD-TGTs composed of the echistatin conjugated to fluorescently labeled ligand strand annealed to the non-anchor strand was added into the wells at varying concentrations ranging from […]. The total picomolar (pmol) range of oligo was from […]. Thus, the standard RAD-TGT experiment in the main text contained […] oligo assuming all oligo properly adhered, thus this is representative of experimental conditions. From this it was concluded that U251 cells internalize the soluble RAD-TGT at a greater rate than the CHO-K1 cells, […]

[4] = target: integrin receptors; details: cited from earlier work
[5] = target: integrins on U251 cells
[6] = target: integrins on U251 cells; assay: cell-based or functional assay

Cc1ccc2c(c1)C(=O)[C@]1(O)CCN(c3ccc(N)cc3)C1=N2 [Para-amino-blebbistatin, reference compound]
decrease in fluorescence upon treatment ([1]; CHO-K1 on WDV-Echi RAD-TGTs, 50 μM, 30 minutes pre-incubation): ~ 30% | effect on median fluorescence, FN ligand ([1]; CHO-K1 on WDV-FN CY5-labeled RAD-TGTs): reduces median fluorescence | decrease in fluorescence upon treatment ([2]; U251 on WDV-Echi RAD-TGTs, 50 μM, 30 minutes pre-incubation): ~ 30% | effect on median fluorescence, FN ligand ([2]; U251 on WDV-FN CY5-labeled RAD-TGTs): reduces median fluorescence

Echistatin
difference in bound echistatin between U251 and CHO-K1 cells [3]: three-to-four-fold | affinity for a broad range of integrin receptors [4]: sub-nanomolar

WDV-echistatin integrin ligand (echistatin recombinantly expressed as a fusion protein with the HUH- (from UniProt P17347 131-179)
fold difference in bound echistatin, U251 against CHO-K1 cells [5]: 3 fold and 4 fold | increase in median fluorescence, 12 pN RAD-TGT, U251 cells, flow cytometry [6]: 12 fold | increase in median fluorescence, 54 pN RAD-TGT, U251 cells, flow cytometry [6]: 7 fold
